Measured values: article PMC9092651, “Improving Thermostability and Catalytic Activity of Glycosyltransferase From Panax ginseng by Semi-Rational Design for Rebaudioside D Synthesis” (Frontiers in Bioengineering and Biotechnology, 2022)

Molecular target: T1, EUGT11 (Oryza sativa, UniProt Q0DPB7)
T1 construct: gene Os03g0702000
T1 sequence (Q0DPB7 1-462): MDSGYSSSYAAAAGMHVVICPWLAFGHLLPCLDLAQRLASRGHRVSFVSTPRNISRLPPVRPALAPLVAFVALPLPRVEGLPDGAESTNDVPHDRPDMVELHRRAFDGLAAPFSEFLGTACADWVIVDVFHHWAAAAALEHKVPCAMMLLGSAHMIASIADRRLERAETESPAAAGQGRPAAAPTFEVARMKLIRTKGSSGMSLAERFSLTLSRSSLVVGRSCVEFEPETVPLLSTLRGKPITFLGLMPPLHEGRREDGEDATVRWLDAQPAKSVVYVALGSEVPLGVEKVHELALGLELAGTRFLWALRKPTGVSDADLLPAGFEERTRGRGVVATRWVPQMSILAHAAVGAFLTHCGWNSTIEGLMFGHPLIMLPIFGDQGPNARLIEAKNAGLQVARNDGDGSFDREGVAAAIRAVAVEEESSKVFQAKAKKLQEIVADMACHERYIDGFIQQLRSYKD
Test: cell-free synthesised enzyme, HPLC product detection
Details: 2 mM UDP-glucose, 2 mM Reb A, 50 mM PBS pH 8.0, 35 °C, 12 h; positive control

## C=C1C[C@@]23CC[C@H]4[C@@](C)(CCC[C@@]4(C)C(=O)O[C@@H]4O[C@H](CO)[C@@H](O)[C@H](O)[C@H]4O)[C@@H]2CC[C@]1(O[C@@H]1O[C@H](CO)[C@@H](O)[C@H](O[C@@H]2O[C@H](CO)[C@@H](O)[C@H](O)[C@H]2O)[C@H]1O[C@@H]1O[C@H](CO)[C@@H](O)[C@H](O)[C@H]1O)C3 [Reb A]
  cell-free synthesised enzyme, HPLC product detection: the glycosylated product of Reb A catalyzed by EUGT11 had the same HPLC retention time
